{"source": "paper PMC520810", "about": "“Endoplasmic reticulum degradation impedes olfactory G-protein coupled receptor functional expression” (BMC Cell Biology, 2004)", "biological_target": "T1, mOREG olfactory receptor (Olfr73) (Mus musculus, UniProt Q920P2)", "T1 construct": "gene Or5d18; N-terminal fusion with the first 20 amino acids of rhodopsin (Rho20-mOREG); untagged mOREG also measured", "T1 sequence (Q920P2 1-313)": "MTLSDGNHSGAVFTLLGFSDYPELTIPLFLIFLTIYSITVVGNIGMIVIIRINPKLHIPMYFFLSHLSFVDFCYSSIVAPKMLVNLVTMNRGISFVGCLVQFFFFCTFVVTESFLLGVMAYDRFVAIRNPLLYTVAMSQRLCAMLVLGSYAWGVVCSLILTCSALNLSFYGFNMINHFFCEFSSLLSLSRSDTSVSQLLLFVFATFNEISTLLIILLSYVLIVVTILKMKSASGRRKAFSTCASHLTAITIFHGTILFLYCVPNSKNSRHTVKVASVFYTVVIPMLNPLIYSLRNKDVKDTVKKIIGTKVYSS", "test": "calcium imaging (fluo-4) in HEK293 cells co-expressing Rho-mOREG and olfactory CNG channel", "assay_type": "cell-based", "from_the_text": "calcium imaging (fluo-4) in HEK293 cells co-expressing Rho-mOREG and olfactory CNG channel on mOREG olfactory receptor (Olfr73) | Responses to eugenol, a ligand for mOREG, were detected in cells co-expressing Rho-mOREG and CNG", "data": [{"compound": "C=CCc1ccc(O)c(OC)c1", "note": "[eugenol]", "values": [{"measurement": "EC50", "result": 20.8, "unit": "µM"}]}]}
